{
  "source": "patent EP0507256A2",
  "about": "“Tyrosine phosphorylation in protozoa” (Bristol-Myers Squibb Company, priority 1991, dated 1992)",
  "key": {"TREU 667 procyclic forms [1]": {"system": "TREU 667 procyclic forms", "test": "Anti-p-tyr immunoblot (Western) analysis of protein tyrosine phosphorylation after orthovanadate treatment", "format": "cell-based, T. brucei", "set-up": "level of protein tyrosine phosphorylation of specific substrates, particularly ptp40 and ptp42: dose or concentration left out as unconfirmed", "procedure": "In the drawings: • FIGURE 1 illustrates the specificity of reactivity with anti-p-tyr antibodies. Lysate from the monomorphic trypanosome strain EATRO 164, clone IHRI 1, procyclic forms (10⁷ cells) was loaded per lane on a 10% sodium dodecyl sulfate polyacrylamide gel electrophoresis (SDS-PAGE) gel. Proteins were transferred to polyvinylidene difluoride membranes, incubated with anti-p-tyr antibodies, and followed by treatment with ¹²⁵I-protein A. Panel A: 0.25 µg ml⁻¹ anti-p-tyr antibodies. Panel B: 1 µg ml⁻¹ anti-p-tyr antibodies, plus 40 mM phenyl phosphate. Molecular weight markers are indicated. Lanes 1 and 2 differ only in the concentration of orthovanadate used during cell processing. • FIGURE 2 illustrates immunoprecipitation and phosphoamino acid analysis. Panel 2A: Western analysis of anti-p-tyr immunoprecipitates. Immunoreactive proteins were enriched by immunoprecipitation as described herein. Each lane was loaded with material corresponding to the same amount of cell lysate. Lanes: 1) total cell lysate; 2) lysate cleared of proteins reactive with anti-p-tyr; 3) eluate from anti-p-tyr immunoprecipitation. Panel 2B: Two-dimensional phosphoamino acid analysis. Procyclic forms were metabolically labelled with [³²P] orthophosphate, and proteins reactive with the anti-p-tyr antiserum were enriched by immunoprecipitation as described above. The proteins were hydrolyzed and phosphoamino acids separated by two-dimensional electrophoresis. […] Lysate of 10⁷ cells from each stage of the life cycle was loaded. TREU 667 is a pleiomorphic strain; EATRO 164 is a monomorphic strain. Independent samples produced by difluoromethylornithine (DFMO) treatment are indicated (D). PF 100% mid-log phase procyclic culture forms. SL Slender bloodforms (EATRO, 100% slender; TREU 75% slender). INT Intermediate bloodforms (approximately 20% slender, 60% intermediate, 20% late intermediate-stumpy). ST Stumpy bloodforms (>60% late intermediate-stumpy, the remainder intermediate). • FIGURE 4 illustrates the solubility analysis of immunoreactive proteins. TREU 667 procyclic form cells were lysed in buffer containing various detergents as indicated. Lanes: 1) 1% NP-40 + 0.25% deoxycholate; 2) 1% NP-40; 3) 2% SDS; 4) freeze/thaw lysis. Solubilized proteins (S), insoluble pellets (P), total lysate (T). • FIGURE 5 illustrates the effect of orthovanadate on cell growth. […] Growth of the parasites was monitored by measuring the optical density at 600 nm over ranges which were previously established to be linearly related to cell density. • FIGURE 6 illustrates the effect of orthovanadate on protein phosphorylation and tyrosine phosphorylation in TREU 667 procyclic forms. […] The cells were rinsed three times and an aliquot equivalent to 2.3 x 10⁵ cells was analyzed by SDS-PAGE and autoradiography. […]"}, "T. brucei cells": {"system": "T. brucei cells", "test": "Tyrosine phosphorylation with tyrosine kinase inhibitors in the presence of orthovanadate", "format": "cell-based", "details": "in the presence of the tyrosine phosphatase inhibitor orthovanadate", "text": "Many inhibitors of mammalian tyrosine kinase have been investigated by the present inventors to determine if tyrosine phosphorylation is reduced in the tested organisms."}, "TREU 667 procyclic forms [2]": {"system": "TREU 667 procyclic forms", "test": "SDS-PAGE analysis of proteins of cells metabolically labelled with [32P]-orthophosphate", "format": "cell-based, T. brucei", "details": "1.5 µM orthovanadate, started one hour before overnight labelling (FIGURE 6C)", "procedure": "(§1) In the drawings: • FIGURE 1 illustrates the specificity of reactivity with anti-p-tyr antibodies. Lysate from the monomorphic trypanosome strain EATRO 164, clone IHRI 1, procyclic forms (10⁷ cells) was loaded per lane on a 10% sodium dodecyl sulfate polyacrylamide gel electrophoresis (SDS-PAGE) gel. Proteins were transferred to polyvinylidene difluoride membranes, incubated with anti-p-tyr antibodies, and followed by treatment with ¹²⁵I-protein A. Panel A: 0.25 µg ml⁻¹ anti-p-tyr antibodies. Panel B: 1 µg ml⁻¹ anti-p-tyr antibodies, plus 40 mM phenyl phosphate. Molecular weight markers are indicated. Lanes 1 and 2 differ only in the concentration of orthovanadate used during cell processing. • FIGURE 2 illustrates immunoprecipitation and phosphoamino acid analysis. Panel 2A: Western analysis of anti-p-tyr immunoprecipitates. Immunoreactive proteins were enriched by immunoprecipitation as described herein. […] Growth of the parasites was monitored by measuring the optical density at 600 nm over ranges which were previously established to be linearly related to cell density. • FIGURE 6 illustrates the effect of orthovanadate on protein phosphorylation and tyrosine phosphorylation in TREU 667 procyclic forms. […] The cells were rinsed three times and an aliquot equivalent to 2.3 x 10⁵ cells was analyzed by SDS-PAGE and autoradiography. […]"}, "[3]": {"system": "TREU 667 procyclic form cells", "test": "Effect of orthovanadate on cell growth (optical density at 600 nm)", "format": "cell-based, T. brucei", "procedure": "as §1"}},
  "data": [
    {"smiles": "C[C@@H]1C[C@@H]([C@H](O)CC2CC(=O)NC(=O)C2)C(=O)[C@@H](C)C1", "note": "[cycloheximide]", "values": [
      {"measurement": "effect of cycloheximide on increased tyrosine phosphorylation mediated by orthovanadate", "setting": "TREU 667 procyclic forms [1]", "value": "does not prevent increased tyrosine phosphorylation"}
    ]},
    {"smiles": "O=c1c(-c2ccc(O)cc2)coc2cc(O)cc(O)c12", "note": "[genestin]", "values": [
      {"measurement": "tyrosine phosphorylation in T. brucei cells", "setting": "T. brucei cells", "value": "decreased tyrosine phosphorylation"}
    ]},
    {"smiles": "[O]=[V]([O-])([O-])[O-]", "note": "[orthovanadate]", "values": [
      {"measurement": "pattern of 32P-labelled proteins observed after SDS-PAGE", "setting": "TREU 667 procyclic forms [2]", "value": "the same in control and treated cells"},
      {"measurement": "time until tyrosine phosphorylation was maximal", "setting": "TREU 667 procyclic forms [1]; 15 µM orthovanadate (FIGURE 6B)", "value": "≤ 2", "unit": "h"},
      {"measurement": "level of protein tyrosine phosphorylation of specific substrates, particularly ptp40 and ptp42", "setting": "TREU 667 procyclic forms [1]; after 6 hours in orthovanadate (FIGURE 6A)", "value": "increased dramatically"},
      {"measurement": "time until tyrosine phosphorylation returned to near control levels", "setting": "TREU 667 procyclic forms [1]; after the drug was removed (cells grown in orthovanadate, rinsed free of drug)", "value": "≤ 24", "unit": "h"},
      {"measurement": "growth and motility of procyclic forms", "setting": "[3]; 1.5 µM orthovanadate", "value": "nonmotile but continued to divide, albeit more slowly"},
      {"measurement": "toxicity to trypanosomes", "setting": "[3]; procyclic forms, concentrations approaching those used to cause phenotypic transformation of mammalian cells (30 µM)", "value": "toxic"}
    ]}
  ]
}
